pIC50: −log10 of the molar value.
Legend:
[1] = biological target: T1, Geranylgeranyl transferase type I (Homo sapiens, UniProt P49354+P53609); assay: Inhibition of geranylgeranylation of P21rap in human PC-3 prostate cancer cells; format: functional, cell-based
[2] = biological target: PC-3 cells (Homo sapiens); assay: Inhibition of human PC-3 prostate cancer cell line proliferation
[3] = biological target: T1, Geranylgeranyl transferase type I; assay: Inhibition of geranylgeranylation of P21rap in human PC-3 prostate cancer cells; values are per cent of control

| SMILES | pIC50 [1] | pIC50 [2] | residual activity [3] [%] |
| --- | --- | --- | --- |
| CC(C)=CCC/C(C)=C/CC/C(C)=C/CC/C(C)=C/COC(=O)NS(N)(=O)=O | 4.55 | 4.65 | 10.8 |
| CCOP(=O)(O)CC(=O)NOC/C=C(\C)CC/C=C(\C)CC/C=C(\C)CCC=C(C)C | 4.40 | 4.45 |  |

Reference: ChEMBL document CHEMBL1129532, “Geranylgeranyl diphosphate-based inhibitors of post-translational geranylgeranylation of cellular proteins” (J Med Chem, 1996)
